Literature values as cited in patent US20210186870A1, “IMPROVED CANNABINOID BIOAVAILABILITY” (EMERALD HEALTH TH[…] INC., priority 2018, published 2021).
Read-outs that look alike come from different tables or passages of the source.

Structure (SMILES): CCCCCc1cc(O)c2c(c1)OC(C)(C)[C@@H]1CCC(C)=C[C@@H]21 [THC, tetrahydrocannabinol]
- bioavailability of THC (from inhaled cannabis smoke): 2-56%
- bioavailability of THC (orally consumed cannabis): 4-20%
